Test results: article PMC12067741, “Inhibition of SOD1 trimerization is a novel drug target for ALS disease” (Translational Neurodegeneration, 2025)

Tested on: SOD1^G93A−Tg mice
Assay: Efficacy of i.p. injection in SOD1G93A-Tg ALS mice
Type: in vivo
Conditions: for reduction of rotarod latency to fall at 16 weeks compared to 11 weeks: vehicle ~43%
Experimental: To evaluate the therapeutic effect of PRG-A-04, SOD1^G93A−Tg mice received intraperitoneal injection of vehicle (DMSO, n = 6) or PRG-A-04 (20 mg/kg, n = 4; 50 mg/kg, n = 6) twice per week from 11 weeks for 6–8 weeks. WT mice (n = 5) served as negative littermates of the SOD1^G93A−Tg mice. WT mice were treated in the same conditions.
For histology analysis, SOD1^G93A−Tg mice received intraperitoneal injections starting from 11 weeks and sacrificed at 17 weeks (vehicle, n = 3; PRG-A-04 20 mg/kg, n = 2, 50 mg/kg, n = 2) and 19 weeks (vehicle, n = 2; PRG-A-04 50 mg/kg, n = 2). WT male mice (n = 5) were sacrificed at 17 weeks. Mice were sacrificed by i.p. (intraperitoneal) injection of avertin at a volume of 150–200 μL. The spinal cord was obtained and fixed in 4% paraformaldehyde for 48 h and embedded in paraffin blocks. The embedded tissues (cervical region of the spinal cord) were sectioned at 5 µm by Accu-Cut ® SRMTM 200 Rotary Microtome (Sakura Finetek, Torrance, CA) and transferred onto adhesive-coated slides (Marienfeld Laboratory Glassware, Lauda-Königshofen, Germany). After deparaffin and rehydration, the slides were stained with hematoxylin and eosin (H&E) to detect spinal cord neurons. In addition, immunohistochemistry (IHC) with antibodies for neuronal markers MAP2 (ab32454, Abcam, Cambridge, UK) and NeuN (ab177487, Abcam) as well as for SOD1 (GTX100554, Genetex, Irvine, CA) was performed. The intensity of MAP2 and NeuN was calculated with the Image J software (version 1.54p, National Institute of Mental Health, MD). For counting intensity, IHC images were divided using the “color deconvolution” function in Image J software and the DAB signal was quantified.
Age-matched WT mice were tested as positive control. […] Mouse movement was recorded.
PRG-A-04 (20 mg/kg or 50 mg/kg) was injected intraperitoneally (i.p., twice a week) in 11-week-old SOD1^G93A−Tg mice to verify its efficacy in vivo (Fig. S4a). […] We performed the rotarod test to monitor muscle strength.
11 weeks old mice were injected with 20 mg/kg and 50 mg/kg, twice per week for 6~8 weeks and checked the motility with rotarod test. To check the histology analysis, some mouse groups were sacrificed and the spinal cord was isolated at 16 weeks and 18 weeks. b, […]
(d) The 11 weeks old mice were injected with PRG-A-04 for 6 weeks and sacrificed at 16 weeks. The cervical spinal cord was stained with H&E. Scale bar; […]. (e) Representative images […]
The tissue lysates were harvest with TNNI buffer and incubation for 30 min then fixed with 0.04% glutaraldehyde (Glu) for 30min. Samples were separated using SDS-PAGE. Arrow indicates human SOD1(hSOD1- […]
MAP2 (e) and the number of NeuN positive cells (f) were counted with Image J software.

`COc1cc(C=CCOC2Cc3cc4ccc(=O)oc4cc3OC2(C)C)ccc1[N+](=O)[O-]` (stereo not shown) [PRG-A-04] was tested, and the “reduction of rotarod latency to fall at 16 weeks compared to 11 weeks” value (i.p. 20 mg/kg twice a week from 11 weeks (first of 'respectively')) was 14.4%, the “reduction of rotarod latency to fall at 16 weeks compared to 11 weeks” value (i.p. 50 mg/kg twice a week from 11 weeks (second of 'respectively')) was 20.1% and the “motor function in open field test” value (i.p. 50 mg/kg, age of 18 weeks) was “significantly improved motor function”. The “SOD1 inclusion bodies in spinal cord” value (i.p. 20 and 50 mg/kg, immunohistochemistry) was “reduced SOD1 inclusion bodies”, the “toxicity regarding body weight loss” value (i.p. 20 or 50 mg/kg twice a week) was “no cytotoxicity regarding body weight loss” and the “number of neurons in cervical region of the spinal cord” value (i.p., histology at 16 weeks, versus vehicle) was “increased the number of neurons”. For the same compound, the “insolubility and oligomerization of SOD1 in spinal cord” value (i.p., western blotting of cervical spinal cord lysates) was “decrease of insolubility and oligomerization of SOD1”.
